# Test results: patent US11332494B2, “Nanoemulsions and methods for cancer therapy” (Fernando Thome Kreutz, priority 2016, dated 2022)
# Where two headings read alike, the source gives them in different places.
# Tests used:
# Assay in all cases: Cell viability assay (Hoechst 33342/PI, ImageXpress)
# Format in all cases: cell-based
# [1] = system: HUV-EC; conditions: Homo sapiens, HUVEC, Table 4, time and unit inferred
# Description: (§1) The purity of each oxysterol was determined to be 98% by GS/MS. For all experiments, a stock solution was prepared at a concentration of 1000 μM in absolute ethanol. The concentrations used in the experiments were in the range of those described to induce cell death on several cell lines. For the experiments, cells were plated at a density of 1.5×10^3 cells/[…] in triplicate in 96-well Black Flat Bottom Polystyrene Microplates (Corning, Mass.) and incubated in CO2 atmosphere. Several concentrations of each oxysterol (0 to 100 μM, 200 μL final volume) were added to the media, followed by incubation for 24 h. At the end of this experimental period, several parameters were determined in each of the three samples, as described hereafter. After 24 h cells were incubated with Hoechst 33342 (0.1 μg/mL) and 0.5 μl propidium iodide (PI) for 15 min. ImageXpress Micro high content screening system (Molecular Devices, Sunnyvale, Calif.) was used to determine the number of live and death cells. Nine sites per well and three wells per treatment were acquired. Cell Scoring MetaXpress software was used to analyze the number of cells and the viability. For IC50 calculations, survival data were evaluated by variable slope curve-fitting with GraphPad Prism.
# [2] = system: LL 24; conditions: LL24, Table 4, time and unit inferred
# Description: as §1
# [3] = system: U87-MG; conditions: U-87 MG, human glioblastoma astrocytoma, Table 2
# Description: (§2) The purity of each oxysterol was determined to be 98% by GS/MS. For all experiments, a stock solution was prepared at a concentration of 1000 μM in absolute ethanol. The concentrations used in the experiments were in the range of those described to induce cell death on several cell lines. For the experiments, cells were plated at a density of 1.5×10^3 cells/[…] in triplicate in 96-well Black Flat Bottom Polystyrene Microplates (Corning, Mass.) and incubated in CO2 atmosphere. Several concentrations of each oxysterol (0 to 100 μM, 200 μL final volume) were added to the media, followed by incubation for 24 h. At the end of this experimental period, several parameters were determined in each of the three samples, as described hereafter.
# (§3) After 24 h cells were incubated with Hoechst 33342 (0.1 μg/mL) and 0.5 μl propidium iodide (PI) for 15 min. ImageXpress Micro high content screening system (Molecular Devices, Sunnyvale, Calif.) was used to determine the number of live and death cells. Nine sites per well and three wells per treatment were acquired. Cell Scoring MetaXpress software was used to analyze the number of cells and the viability. For IC50 calculations, survival data were evaluated by variable slope curve-fitting with GraphPad Prism.
# [4] = system: T98G; conditions: human brain glioblastoma, Table 2
# Description: as §2, §3
# [5] = system: MRC-5; conditions: MRC5; MRC-5, human lung normal; Table 2
# Description: as §2, §3
# [6] = system: Molt-4; conditions: Molt-4, human acute lymphoblastic leukemia; Table 2
# Description: as §2, §3
# [7] = system: PC-3; conditions: PC-3, human prostate grade IV adenocarcinoma; Table 2
# Description: as §2, §3
# [8] = system: Jurkat; conditions: human acute T cell leukemia, Table 2
# Description: as §2, §3
# [9] = system: HepG-2; conditions: HepG2; HepG-2, human hepatocellular carcinoma; Table 2
# Description: as §2, §3
# [10] = system: HeLa; conditions: human cervix adenocarcinoma, Table 2
# Description: as §2, §3
# [11] = system: Raji; conditions: human Burkitt's lymphoblast, Table 2
# Description: as §2, §3
# [12] = system: A172; conditions: A 172; A172, human brain glioblastoma; Table 2
# Description: as §2, §3
# [13] = system: MDA-MB-321 cell line
# Description: as §2, with “Several concentrations of each oxysterol (0 to 100 μM, 200 μL final volume) were added to the media, followed by incubation for 24 h.” left out
# as §3
# [14] = system: B16-F10 cell line; conditions: Mus musculus
# Description: as §2, with “Several concentrations of each oxysterol (0 to 100 μM, 200 μL final volume) were added to the media, followed by incubation for 24 h.” left out
# as §3
# [15] = MDA-MB-321, 24 h, Table 3, read-out: MDA-MB-321 cell line IC50 (uM) 24 h
# [16] = MDA-MB-321, 48 h, Table 3, read-out: MDA-MB-321 cell line IC50 (uM) 48 h
# [17] = MDA-MB-321, 72 h, Table 3, read-out: MDA-MB-321 cell line IC50 (uM) 72 h
# [18] = MDA-MB-321, Table 4, time and unit inferred, read-out: IC50 MDA-MB-321
# [19] = B16-F10, 24 h, Table 3, read-out: B16-F10 cell line IC50 (uM) 24 h
# [20] = B16-F10, 48 h, Table 3, read-out: B16-F10 cell line IC50 (uM) 48 h
# [21] = B16-F10, 72 h, Table 3, read-out: B16-F10 cell line IC50 (uM) 72 h
# [22] = B16 F10, Table 4, time and unit inferred, read-out: IC50 B16 F10
SMILES,IC50 [1] [µM],IC50 [2] [µM],IC50 [3] [µM],IC50 [4] [µM],IC50 [5] [µM],IC50 [6] [µM],IC50 [7] [µM],IC50 [8] [µM],IC50 [9] [µM],IC50 [10] [µM],IC50 [11] [µM],IC50 [12] [µM],"IC50 [13, 15] [µM]","IC50 [13, 16] [µM]","IC50 [13, 17] [µM]","IC50 [13, 18] [µM]","IC50 [14, 19] [µM]","IC50 [14, 20] [µM]","IC50 [14, 21] [µM]","IC50 [14, 22] [µM]"
"CC(C)CCCC(C)C1CCC2C3CC(O)C4(O)CC(O)CC[C@]4(C)C3CC[C@]12C (stereo in doubt) [Ox-2, Cholestane-3α-5β-6α-triol]",73.6,38.4,29.8,27.5,47.5,12.3,21,46.6,19,19.9,39,23.6,7.9,21.1,25.2,37.5,18.1,21.4,15.4,41.3
"CC(C)CCCC(C)C1CCC2C3CC(O)C4CC(O)CC[C@]4(C)C3CC[C@]12C (stereo in doubt) [Ox-4, (3α,5β,6α)-cholestane-3,6-diol]",,28.3,,,,,,,,,,,66.6,39.7,35.3,59,58.3,52.9,82.6,42.4
"CC(C)CCC[C@@H](C)[C@H]1CC[C@H]2[C@@H]3C(=O)C=C4C[C@@H](O)CC[C@]4(C)[C@H]3CC[C@]12C [Ox-1, 7-Ketocholesterol]",39.4,49.5,55.6,,78.6,38,19.2,55.8,42.5,33.2,63.3,15.6,54.4,50.4,48.1,37.6,19.9,21.7,29.6,35.6
"CC(C)CCC[C@H](C)C1CCC2C3C(=O)C=C4C=CCC[C@]4(C)C3CC[C@@]21C (stereo partly shown) [Ox-3, 3,5-cholestan-7-one]",,,,,,,,,,,,,,,,,,377,52.9,118
"CC(=O)O[C@H]1CC[C@@]2(C)C(=CC[C@H]3[C@@H]4CC[C@H]([C@H](C)CCCC(C)C)[C@@]4(C)CC[C@@H]32)C1 [Ox-5, Cholesteryl acetate]",,,,,,,,,,,,,,,89.8,,,,,
"CC(=O)O[C@H]1CC[C@@]2(C)C(=CC(=O)[C@H]3[C@@H]4CC[C@H]([C@H](C)CCCC(C)C)[C@@]4(C)CC[C@@H]32)C1 [Ox-6, 7-oxocholest-5-en-3-β-yl acetate]",,,,,,,,,,,,,,8560,829,,,,,
"CC(C)CCC[C@@H](C)[C@H]1CC[C@H]2[C@@H]3C(=O)[C@@H]4O[C@@]45C[C@@H](O)CC[C@]5(C)[C@H]3CC[C@]12C [Ox-8, (3α,5β,6α)-3-OH-5,6-epoxycholestan-7-one]",35.2,46.5,,,,,,,,,,,,,,40,,,,37
